This is an account of results in patent publication US8916164B2, “Methods of enhancing adjuvaticity of vaccine compositions” (ABIVAX, priority 2007, dated 2014).

Assay [1] relates to NKT cells. In words: Expansion of NKT cells in culture of peripheral blood lymphocytes (PBL), flow cytometry on day 7. It counts as cell-based, human. The following applies: for percentage of NKT cells in the CD3+ population: PBL of two healthy donors, 10 ng/ml, 100 ng/ml or 1 μg/ml, rhIL-2, day 7 (FIG. 1). The method, then: PBLs were derived from two healthy donors and grown in RPMI cell culture media with 5% AB serum. Cells were plated on 12-well plates at 2×10^6 PBL/well/2 ml. Wells were treated with negative controls (0.05% Tween20 and 1% DMSO in PBS or 0.05% Tween20 and 10% DMSO in PBS) or the test adjuvants (αGalCer, PBS-20, PBS-25, or PBS-57) at a final concentration of 10 ng/ml, 100 ng/ml or 1 μg/ml. The chemical structures for control compounds αGalCer, PBS-20 and PBS25 are shown below:
All cultures were supplemented with recombinant human IL2 (rhIL-2) to obtain final concentration of 100 UI/ml by day 1. All cells were cultured for 10 days at 37° C. under 5% CO2. On day 7, half the culture medium (1 ml) was removed for NKT analysis. Percentage of NKT cells in the CD3+ population was detected by flow cytometry using fluorescently labeled CD1 tetramers or fluorescently labeled antibodies (anti-CD3, anti-Vβ11, and anti NKT). The NKT population was identified by flow cytometry as the Vβ11+, Tetramer+ and TCRαβ+ population. NKT cell percentage was calculated in each sample by subtracting the Vβ11+ PBS -57-tetramer+ TCRαβ+ from the Vβ11+ empty-tetramer+TCRαβ+.
Peripheral blood lymphocytes were derived from two healthy donors and cultured in RPMI with 5% AB serum. Cells are plated in a 12-well plate with 2×10^6 cells per well per 2 ml media. One well received carrier (0.05% Tween20 and 1% DMSO in PBS) as a negative control, and test wells received αGalCer, PBS-25, PBS-57, or PBS-83 at final concentrations of 1 ng/ml, 10 ng/ml and 100 ng/ml. The structure of PBS-83 is shown below:
All cultures were supplemented with rhIL-2 to obtain a final concentration of 100 UI/ml by day 1, and cultured for 7 days at 37° C. under 5% CO2 conditions. At day 7, the percentage NKT cells was detected by flow cytometry.

Assay [2] relates to NKT cells. As to the kind of experiment: Increase in NKT cells (day 7 / day 0) in PBL/PBMC cultures from healthy donors. It counts as cell-based. The following applies: PBL cultures from human volunteers (FIG. 3). The method, then:
NKT staining was performed on a panel of fourteen healthy donor peripheral blood lymphocytes (PBL) or peripheral blood […] (PBMC) samples. PBLs were isolated from 12 subjects, and PBMCs were isolated from 2 subjects. Each isolated cell sample was split into two samples. The first sample from each donor was stained with 10 μl anti-Vβ11 FITC (Beckman Coulter), 10 μl anti-TCRαβ-PC5 (Beckman Coulter), and 2 μl PE-labeled PBS-57-CD1d-tetramer. The second sample from each donor was stained with 10 μl Vβ11, 10 μl anti-TCRαβ-FITC, and 2 μl PE-labeled empty-CD1d-tetramer.
To determine a percentage increase in NKT cells, the number of NKT cells on day 7 was divided by the number of NKT cells on day 0.

In assay [3] the test system is TCRαβ cells and NKT cells in the spleen. In words: TCRαβ and NKT cell populations in the spleen of mice 24 hours after intravenous administration. It counts as in vivo, C57B1/6J mice. The following applies: 0.97 μg αGalCer or 1.3 μg PBS57, 24 hours; for percentage of TCRαβ cells in the spleen: compared with PBS and carrier control (FIG. 4A); for percentage of NKT cells within the TCRαβ population in the spleen: relative to control (FIG. 4B). Here is the method:
(§1) To test for adjuvant activity of PBS57 in vivo, mice were injected with test compounds and assayed for cell activation and expansion at 24 hours. Four groups of five C57B1/6J mice were each intravenously administered phosphate buffered saline (PBS) with carrier (DMSO alone), 0.97 μg of αGalCer, 1.3 μg of PBS57, or 0.97 μg of PBS83 in a total of 100 μl PBS. 24 hours after administration of the test compound, the mice were sacrificed and blood samples and splenocytes were isolated by standard methods. Percentage of NKT cells in the spleen was evaluated by flow cytometry with staining using anti-TCRαβ-FITC and PE-labeled CD1d-tetramer loaded with PBS-57 (PBS57-tetramer) or without lipid (empty-tetramer). […] The percentage of NKT cells was determined by subtracting the percentage of PBS57-tetramer+ cells from the percentage of empty-tetramer+ cells in the TCRαβ population.

In the next assay the test system is tetanus toxoid. In words: Antibody (IgG) response to tetanus toxoid immunization, tetanus toxoid specific ELISA. The following applies: mice, IM day 0 and day 15, 10 μg TT with 1 μg PBS57 versus TT alone, blood day 0, 15 and 30 (FIG. 14). It counts as in vivo. Here is the method:
IgG titers were determined by standard methods from blood samples drawn on day 0, 15 and 30. The antibody titer was determined by tetanus toxoid specific ELISA.
(In general: An ELISA detects its analyte on a solid surface through an enzyme-linked reagent.)

In another assay the test system is INF-γ and IL-4. The following applies: in vitro; cited from earlier work.
Assay [4] relates to Ova-specific CD8+ T cells. In words: H2Kb-SIINFEKL pentamer staining of CD8+ T cells in blood after immunization with Ova. The assay is classed as in vivo, C57/B1/6J CD45.2 female mice. Here is the method: A mouse model was used to test the in vivo specific T cell response (CD8+) elicited by PBS57 in combination with antigen. C57/B1/6J CD45.2 female mice were immunized intramuscularly on day 0 and 14 with antigen (Ovalbumin, Ova, grade VII, Sigma, St. Louis, Mo.) with or without adjuvant, adjuvant alone, or carrier alone (control) in a total of 100 μl PBS carrier. Test adjuvant was 1 μg PBS57 with or without 50 μg Ova. Each group included at least three mice. Blood was collected from each mouse at day 21 and isolated cells were subjected to pentamer staining with H2K^b-SIINFEKL pentamers after blocking the Fc receptor. FACS analysis was performed including only CD8+ cells in the analysis (CD19+ cells were excluded from the analysis to exclude any B cells). […] The results are reported as mean+/−standard deviation of H2K^b-SIINFEKL specific CD8+ T cells in the blood.
A mouse model was used to test the in vivo specific T cell response (CD8+) elicited by PBS57 in combination with antigen as compared to that of αGalCer. C57/B1/6J CD45.2 female mice were immunized subcutaneously on day 0 and 14 with antigen (Ovalbumin, Ova, grade VII, Sigma, St. Louis, Mo.) with or without adjuvant, adjuvant alone, or carrier alone (control) in a total of 100 μl PBS carrier. Test adjuvant was 1 μg PBS57 or αGalCer with or without 50 μg Ova. Each group included at least three mice. […]

The test system of assay [5] is CD11c+CD8α− and CD11c+CD8α+ dendritic cells. In words: Dendritic cell subsets and maturation (CD40, CD80, CD86) in splenocytes of mice 24 hours after intravenous administration. It counts as in vivo, C57B1/6J mice. The conditions noted are these: for decrease of both subsets of DCs (CD11c+CD8α− and CD11c+CD8α+) compared to the control: splenocytes; for percentage of CD40+, CD80+ and CD86+ expressing cells in both the CD11c+CD8α− and CD11c+CD8α+ populations: splenocytes (FIGS. 5A-5F). The method, then:
as §1
Dendritic cells (DCs) were detected in the splenocytes by flow cytometry by staining with anti-CD11c R-PE (BD Pharmingen) and anti-CD8α FITC (Beckman Coulter). Two subsets of dendritic cells, CD11c+CD8α− and CD11c+CD8α+ populations, were analyzed further. […] To determine if administration of glycolipid induced maturation of the two subsets of dendritic cells, the cells were stained with anti-CD40 Biotin/Stepta APC (BD Bioscience), anti-CD80 Biotin (BD Pharmingen)/Stepta APC (BD Bioscience) and anti-CD86 Biotin (BD Pharmingen)/Stepta APC (BD Bioscience) antibodies and analyzed by flow cytometry. FIGS. 5A and 5B show the percentage of CD40 positive cells in both the CD11c+CD8α− and CD11c+CD8α+ cells, respectively. […] Horizontal lines represent the averages.

Assay [6] concerns Ova-specific target cells. As to the kind of experiment: In vivo specific cytotoxic T cell (CD8+) response: specific lysis of CFSE-labeled SIINFEKL-loaded target cells in immunized mice. More on the design: species or system C57/B1/6J CD45.2 female mice. The following applies: for specific lysis of Ova-specific target cells in the blood, IM versus IV: 400 μg Ova and 1 μg adjuvant in 50 μl PBS, IM or IV, readout day 11 (FIG. 13); for specific lysis of Ova-specific target cells in the blood, intramuscular immunization: IM hind left leg, 400 μg Ova with 1 μg to 10 pg adjuvant, readout day 11 (FIG. 11, FIG. 12); for specific lysis of Ova-specific target cells in the blood, intravenous immunization: 50 μg Ova with varying doses of adjuvant, readout day 11 (FIG. 8, FIG. 9).

SMILES strings stand for the structures. “Also recorded” adds a separate entry of the source.

Regarding `CCCCCCCCC=CCCCCCCCCCCCCCC(=O)N[C@@H](OC1OC(CNC(C)=O)C(O)C(O)C1O)C(O)[C@H](O)CCCCCCCCCCCCCC` (stereo partly drawn) [PBS57], the “percentage of NKT cells in the CD3+ population” value in the assay on NKT cells [1] is “expansion of NKT cells”. The “increase in NKT cells over cells treated with αGalCer” value in the assay with NKT cells [1] (separate experiment, PBL of two healthy donors, 1, 10 and 100 ng/ml, day 7 (FIG. 2)) is reported as “at least a two fold increase”. For the same molecule, the “increase in NKT cells (number on day 7 divided by number on day 0)” value in the assay on NKT cells [2] was “substantial increase in NKT cells”. In addition, in assay [3], the “percentage of TCRαβ cells in the spleen” value is recorded as “increase in percentage of TCRαβ cells” and the “percentage of NKT cells within the TCRαβ population in the spleen” value was “decrease in percentage of NKT cells”. Further, in the assay with tetanus toxoid, the “antibody (IgG) titer to tetanus toxoid” value is given as “enhanced the antibody response to TT”. In addition, in the assay with INF-γ and IL-4, the “release of INF-γ and IL-4” value is “induce the release of the INF-γ and IL-4”. The “H2Kb-SIINFEKL specific CD8+ T cells in the blood, intramuscular immunization” value in assay [4] (IM day 0 and 14, 1 μg PBS57 with 50 μg Ova, compared to Ova alone, blood day 21 (FIG. 15)) was “increase in Ova-specific CD8+ T cells”. In assay [4] (SC day 0 and 14, 1 μg PBS57 with 50 μg Ova, compared to Ova alone or αGalCer and Ova, blood day 21 (FIG. 16)), the “H2Kb-SIINFEKL specific CD8+ T cells in the blood, subcutaneous immunization” value was “increase in Ova-specific CD8+ T cells”. Also, in assay [5], the “decrease of both subsets of DCs (CD11c+CD8α− and CD11c+CD8α+) compared to the control” value was 50%; the “percentage of CD40+, CD80+ and CD86+ expressing cells in both the CD11c+CD8α− and CD11c+CD8α+ populations” value is “substantially increased”. Also, in assay [6] (1 μg adjuvant with 50 μg Ova on day 0, target cells day 10, readout day 11 (FIG. 7)), the “specific lysis of Ova-specific target cells in the spleen” value is “produced cytotoxic lysis of Ova-specific target cells”. In addition, in assay [6], the “specific lysis of Ova-specific target cells in the blood, IM versus IV” value is on record as “caused a cytotoxic response regardless of the route of administration”; the “specific lysis of Ova-specific target cells in the blood, intramuscular immunization” value was “can elicit a specific cytotoxic response when injected both intravenously and intramuscularly”. In addition, the “specific lysis of Ova-specific target cells, varying Ova dose” value in assay [6] (IV, 1 μg PBS57 with 50 μg to 10 pg Ova, readout day 11 (FIG. 10)) was “dependent on antigen concentration”. The “specific lysis of Ova-specific target cells in the blood, intravenous immunization” value in assay [6] (IV) is “dose-dependent specific cytotoxic effect”.
Regarding `CCCCCCCCCCCCCCCCCCCCCCCCCC(=O)N[C@@H](COC1OC(CO)C(O)C(O)C1O)[C@H](O)[C@H](O)CCCCCCCCCCCCCC` (stereo partly drawn) [αGalCer, α-galactosyceramide, reference compound], the “percentage of NKT cells in the CD3+ population” value with NKT cells [1] is given as “expansion of NKT cells”. Further, in assay [3], the “percentage of TCRαβ cells in the spleen” value is listed as “increase in percentage of TCRαβ cells” and the “percentage of NKT cells within the TCRαβ population in the spleen” value is given as “decrease in percentage of NKT cells”. Further, in assay [5], the “decrease of both subsets of DCs (CD11c+CD8α− and CD11c+CD8α+) compared to the control” value was 50%; the “percentage of CD40+, CD80+ and CD86+ expressing cells in both the CD11c+CD8α− and CD11c+CD8α+ populations” value is “substantially increased”. In assay [6], the “specific lysis of Ova-specific target cells in the blood, IM versus IV” value is reported as “did not induce a cytotoxic response when injected intramuscularly” and the “specific lysis of Ova-specific target cells in the blood, intramuscular immunization” value is “not able to generate a specific cytotoxic T cell response; also recorded: can only elicit a cytotoxic response when injected intravenously”. In assay [6] (IV), the “specific lysis of Ova-specific target cells in the blood, intravenous immunization” value was “dose dependent specific cytotoxic effect; also recorded: elicited a cytotoxic response when injected intravenously at 1 μg-10 ng”.
